Test results taken from US7803778B2, “Glucose transport inhibitors and methods of use” (Theracos, Inc., priority 2006, dated 2010).
Read-outs that look alike come from different tables or passages of the source.

Experiments:
human SGLT2 = target: T1, human SGLT2 (Homo sapiens, UniProt P31639); experiment: Methyl-α-D-[U-14C]glucopyranoside uptake assay, SGLT2; format: cell-based; conditions: HEK293.ETN cells stably expressing human SGLT2, sodium-dependent uptake, 1.5 h incubation
T1 construct: A full-length cDNA clone expressing human SGLT2
T1 sequence (P31639 1-672): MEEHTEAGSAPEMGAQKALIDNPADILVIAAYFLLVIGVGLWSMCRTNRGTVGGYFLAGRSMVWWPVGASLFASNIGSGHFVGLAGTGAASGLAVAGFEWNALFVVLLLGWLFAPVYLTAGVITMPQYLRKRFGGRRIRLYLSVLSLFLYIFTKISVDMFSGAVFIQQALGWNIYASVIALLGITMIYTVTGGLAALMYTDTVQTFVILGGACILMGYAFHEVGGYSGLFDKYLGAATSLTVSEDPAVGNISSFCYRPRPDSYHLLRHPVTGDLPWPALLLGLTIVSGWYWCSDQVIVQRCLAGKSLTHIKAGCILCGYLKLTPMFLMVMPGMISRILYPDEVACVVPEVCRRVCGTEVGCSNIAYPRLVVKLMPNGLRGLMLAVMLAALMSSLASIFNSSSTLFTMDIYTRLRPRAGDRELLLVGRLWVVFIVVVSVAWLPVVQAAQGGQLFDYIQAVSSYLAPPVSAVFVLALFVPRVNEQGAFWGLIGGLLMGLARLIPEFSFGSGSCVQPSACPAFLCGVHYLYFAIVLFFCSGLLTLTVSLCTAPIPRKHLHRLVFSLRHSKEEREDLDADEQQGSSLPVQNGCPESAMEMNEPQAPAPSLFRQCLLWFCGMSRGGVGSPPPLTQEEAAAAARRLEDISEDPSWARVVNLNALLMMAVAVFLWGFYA
Description: A full-length cDNA clone expressing human SGLT2 (GenScript Corporation) was subcloned into Hind III and Not I sites of pEAK15 expression vector. Clones harboring the cDNA inserts were identified by restriction analysis.
Plasmid containing human SGLT2 was linearized with Nsi I and purified by agarose gel electrophoresis. Using Lipofectamine 2000 Transfection Reagent (Invitrogen Corporation), DNA was transfected into HEK293.ETN cells and cultured in Dulbecco's Modified Eagle Medium (DMEM) containing 10% fetal bovine serum (FBS) at 37° C. under 5% CO2 for 24 h. Transfectants were selected in the same growth medium supplemented with puromycin (Invitrogen Corporation) for two weeks. Puromycin-resistant cells were recovered and seeded on a fresh 96-well plate (single cell per well) and cultured in the presence of puromycin until cells became confluent. Puromycin-resistant clones were evaluated for SGLT2 activity in the methyl-α-D-[U-^14C]glucopyranoside uptake assay described below.
(§1) Cells expressing SGLT1 or SGLT2 were seeded on 96-well ScintiPlate scintillating plates (PerkinElmer, Inc.) in DMEM containing 10% FBS (1×10^5 cells per well in 100 μl medium) incubated at 37° C. under 5% CO2 for 48 h prior to the assay. Cells were washed twice with 150 μl of either sodium buffer (137 mM NaCl, 5.4 mM KCl, 2.8 mM CaCl2, 1.2 mM MgCl2, 10 mM tris(hydroxymethyl)aminomethane/N-2-hydroxyethylpiperazine-N′-ethanesulfonic acid [Tris/Hepes], pH 7.2) or sodium-free buffer (137 mM N-methyl-glucamine, 5.4 mM KCl, 2.8 mM CaCl2, 1.2 mM MgCl2, 10 mM Tris/Hepes, pH 7.2). Test compound in 50 μl each of sodium or sodium-free buffer containing 40 μCi/ml methyl-α-D-[U-^14C]glucopyranoside (Amersham Biosciences/GE Healthcare) was added per well of a 96-well plate and incubated at 37° C. with shaking for either 2 h (SGLT1 assay) or 1.5 h (SGLT2 assay). Cells were washed twice with 150 μl of wash buffer (137 mM N-methylglucamine, 10 mM Tris/Hepes, pH 7.2) and methyl-α-D-[U-^14C]glucopyranoside uptake was quantitated using a TopCount scintillation counter (PerkinElmer, Inc.). Sodium-dependent glucopyranoside uptake was measured by subtracting the values obtained with sodium-free buffer from those obtained using sodium buffer (average of triplicate determinations).

human SGLT1 = target: T2, human SGLT1 (Homo sapiens, UniProt P13866); experiment: Methyl-α-D-[U-14C]glucopyranoside uptake assay, SGLT1; format: cell-based; conditions: COS-7 cells transfected with human SGLT1; sodium-dependent uptake, 2 h incubation
T2 construct: Full-length human SGLT1 cDNA on pDream2.1 expression vector; host or cells: COS-7 cells
T2 sequence (P13866 1-664): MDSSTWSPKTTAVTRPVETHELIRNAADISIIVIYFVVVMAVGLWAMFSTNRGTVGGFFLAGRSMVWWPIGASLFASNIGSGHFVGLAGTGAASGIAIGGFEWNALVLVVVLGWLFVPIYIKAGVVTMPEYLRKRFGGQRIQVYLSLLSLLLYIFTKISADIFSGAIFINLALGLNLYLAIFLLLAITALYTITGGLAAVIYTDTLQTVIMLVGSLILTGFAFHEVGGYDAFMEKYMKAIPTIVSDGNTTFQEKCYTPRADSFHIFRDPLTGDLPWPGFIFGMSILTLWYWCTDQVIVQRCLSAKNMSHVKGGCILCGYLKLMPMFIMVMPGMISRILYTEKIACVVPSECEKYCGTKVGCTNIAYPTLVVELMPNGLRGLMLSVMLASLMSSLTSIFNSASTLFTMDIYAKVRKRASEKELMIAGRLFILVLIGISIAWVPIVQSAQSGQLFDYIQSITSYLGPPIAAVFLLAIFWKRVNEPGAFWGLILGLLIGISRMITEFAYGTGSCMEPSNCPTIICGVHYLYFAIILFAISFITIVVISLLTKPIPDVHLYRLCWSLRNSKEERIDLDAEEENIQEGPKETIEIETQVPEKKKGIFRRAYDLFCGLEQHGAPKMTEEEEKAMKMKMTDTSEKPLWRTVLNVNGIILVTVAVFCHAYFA
Experimental: Full-length human SGLT1 cDNA on pDream2.1 expression vector was obtained from GenScript Corporation and propagated in Escherichia coli strain DH5α using Luria-Bertani (LB) medium containing ampicillin. Plasmid DNA was isolated using the QIAGEN Plasmid Midi Kit (QIAGEN Inc.). […] Transfected cells were stored in DMEM containing 10% dimethyl sulfoxide (DMSO) at −80° C.
as §1

## CCc1ccc(Cc2cc3c(cc2Cl)CO[C@]32O[C@H](COC)[C@@H](O)[C@H](O)[C@H]2O)cc1 [Compound AG, (1S,3′R,4′S,5′S,6′R)-5-chloro-6-(4-ethylbenzyl)-6′-(methoxymethyl)-3′,4′,5′,6′-tetrahydro-3H-spiro[isobenzofuran-1,2′-pyran]-3′,4′,5′-triol]
Human SGLT2; read-out: IC50 SGLT2
  IC50: < 1 µM
Human SGLT1
  IC50: 1 to 10 µM

## CCc1ccc(Cc2cc3c(cc2Cl)CO[C@]32O[C@H](COC(C)=O)[C@@H](O)[C@H](O)[C@H]2O)cc1 [Compound AH, ((1S,3′R,4′S,5′S,6′R)-5-chloro-6-(4-ethylbenzyl)-3′,4′,5′-trihydroxy-3′,4′,5′,6′-tetrahydro-3H-spiro[isobenzofuran-1,2′-pyran]-6′-yl)methyl acetate]
Human SGLT2; read-out: IC50 SGLT2
  IC50: < 1 µM
Human SGLT1
  IC50: 1 to 10 µM

## CCc1ccc(Cc2cc3c(cc2Cl)CO[C@]32O[C@H](COCC(F)(F)F)[C@@H](O)[C@H](O)[C@H]2O)cc1 [Compound AI, (1S,3′R,4′S,5′S,6′R)-5-chloro-6-(4-ethylbenzyl)-6′-((2,2,2-trifluoroethoxy)methyl)-3′,4′,5′,6′-tetrahydro-3H-spiro[isobenzofuran-1,2′-pyran]-3′,4′,5′-triol]
Human SGLT2; read-out: IC50 SGLT2
  IC50: < 1 µM
Human SGLT1
  IC50: > 10 µM

## CCc1ccc(Cc2cc3c(cc2Cl)CO[C@]32O[C@H](CNC(C)=O)[C@@H](O)[C@H](O)[C@H]2O)cc1 [Compound AM, N-(((1S,3′R,4′S,5′S,6′R)-5-chloro-6-(4-ethylbenzyl)-3′,4′,5′-trihydroxy-3′,4′,5′,6′-tetrahydro-3H-spiro[isobenzofuran-1,2′-pyran]-6′-yl)methyl)acetamide]
Human SGLT2; read-out: IC50 SGLT2
  IC50: < 1 µM
Human SGLT1
  IC50: 1 to 10 µM

## CCc1ccc(C(=O)c2cc3c(cc2Cl)CO[C@]32O[C@H](CO)[C@@H](O)[C@H](O)[C@H]2O)cc1 [Compound AQ, ((1S,3′R,4′S,5′S,6′R)-5-chloro-3′,4′,5′-trihydroxy-6′-(hydroxymethyl)-3′,4′,5′,6′-tetrahydro-3H-spiro[isobenzofuran-1,2′-pyran]-6-yl)(4-ethylphenyl)methanone]
Human SGLT2; read-out: IC50 SGLT2
  IC50: < 1 µM
Human SGLT1
  IC50: > 10 µM

## CCc1ccc(Cc2cc3c(cc2Cl)CC[C@]32O[C@H](CO)[C@@H](O)[C@H](O)[C@H]2O)cc1 [Compound AV, (1S,3′R,4′S,5′S,6′R)-5-chloro-6-(4-ethylbenzyl)-6′-(hydroxymethyl)-2,3,3′,4′,5′,6′-hexahydrospiro[indene-1,2′-pyran]-3′,4′,5′-triol]
Human SGLT2; read-out: IC50 SGLT2
  IC50: < 1 µM
Human SGLT1
  IC50: 1 to 10 µM

## CCc1ccc(Cc2cc3c(cc2Cl)C(CCO)C[C@]32O[C@H](CO)[C@@H](O)[C@H](O)[C@H]2O)cc1 (stereo partly drawn) [Compound BA, (1S,3′R,4′S,5′S,6′R)-5-chloro-6-(4-ethylbenzyl)-3-(2-hydroxyethyl)-6′-(hydroxymethyl)-2,3,3′,4′,5′,6′-hexahydrospiro[indene-1,2′-pyran]-3′,4′,5′-triol]
Human SGLT2; read-out: IC50 SGLT2
  IC50: < 1 µM
Human SGLT1
  IC50: > 10 µM

## CCc1ccc(Cc2cc3c(cc2Cl)C(O)C[C@]32O[C@H](CO)[C@@H](O)[C@H](O)[C@H]2O)cc1 (stereo partly drawn) [Compound BB, (1S,3′R,4′S,5′S,6′R)-5-chloro-6-(4-ethylbenzyl)-6′-(hydroxymethyl)-2,3,3′,4′,5′,6′-hexahydrospiro[indene-1,2′-pyran]-3,3′,4′,5′-tetraol]
Human SGLT2; read-out: IC50 SGLT2
  IC50: < 1 µM
Human SGLT1
  IC50: > 10 µM

## CCc1ccc(Cc2cc3c(cc2Cl)C(OC)C[C@]32O[C@H](CO)[C@@H](O)[C@H](O)[C@H]2O)cc1 (stereo partly drawn) [Compound BD, (1S,3′R,4′S,5′S,6′R)-5-chloro-6-(4-ethylbenzyl)-6′-(hydroxymethyl)-3-methoxy-2,3,3′,4′,5′,6′-hexahydrospiro[indene-1,2′-pyran]-3′,4′,5′-triol]
Human SGLT2; read-out: IC50 SGLT2
  IC50: < 1 µM
Human SGLT1
  IC50: > 10 µM

## CCc1ccc(Cc2cc3c(cc2Cl)C(F)C[C@]32O[C@H](CO)[C@@H](O)[C@H](O)[C@H]2O)cc1 (stereo partly drawn) [Compound BE, (1S,3′R,4′S,5′S,6′R)-5-chloro-6-(4-ethylbenzyl)-3-fluoro-6′-(hydroxymethyl)-2,3,3′,4′,5′,6′-hexahydrospiro[indene-1,2′-pyran]-3′,4′,5′-triol]
Human SGLT2; read-out: IC50 SGLT2
  IC50: < 1 µM
Human SGLT1
  IC50: > 10 µM

## OC[C@H]1O[C@]2(CCc3cc(Cl)c(Cc4ccc(O[C@H]5CCOC5)cc4)cc32)[C@H](O)[C@@H](O)[C@@H]1O [Compound BG, (1S,3′R,4′S,5′S,6′R)-5-chloro-6′-(hydroxymethyl)-6-(4-((S)-tetrahydrofuran-3-yloxy)benzyl)-2,3,3′,4′,5′,6′-hexahydrospiro[indene-1,2′-pyran]-3′,4′,5′-triol]
Human SGLT2; read-out: IC50 SGLT2
  IC50: < 1 µM
Human SGLT1
  IC50: > 10 µM

## CCOc1ccc(Cc2ccc3c(c2)[C@]2(OC3)O[C@H](CO)[C@@H](O)[C@H](O)[C@H]2O)cc1 [Compound G, (1S,3′R,4′S,5′S,6′R)-6-(4-ethoxybenzyl)-6′-(hydroxymethyl)-3′,4′,5′,6′-tetrahydro-3H-spiro[isobenzofuran-1,2′-pyran]-3′,4′,5′-triol]
Human SGLT2; read-out: IC50 SGLT2
  IC50: < 1 µM
Human SGLT2; read-out: SGLT2 IC50
  IC50: 0.071 µM
Human SGLT1
  IC50: > 10 µM

## CCOc1ccc(Cc2cc3c(cc2Cl)CO[C@]32O[C@H](CO)[C@@H](O)[C@H](O)[C@H]2O)cc1 [Compound H, (1S,3′R,4′S,5′S,6′R)-5-chloro-6-(4-ethoxybenzyl)-6′-(hydroxymethyl)-3′,4′,5′,6′-tetrahydro-3H-spiro[isobenzofuran-1,2′-pyran]-3′,4′,5′-triol]
Human SGLT2; read-out: IC50 SGLT2
  IC50: < 1 µM
Human SGLT2; read-out: SGLT2 IC50
  IC50: 0.0051 µM
Human SGLT1
  IC50: 1 to 10 µM

## CCc1ccc(Cc2cc3c(cc2Cl)CO[C@]32O[C@H](CO)[C@@H](O)[C@H](O)[C@H]2O)cc1 [Compound K, (1S,3′R,4′S,5′S,6′R)-5-chloro-6-(4-ethylbenzyl)-6′-(hydroxymethyl)-3′,4′,5′,6′-tetrahydro-3H-spiro[isobenzofuran-1,2′-pyran]-3′,4′,5′-triol]
Human SGLT2; read-out: IC50 SGLT2
  IC50: < 1 µM
Human SGLT1
  IC50: < 1 µM
